The record followed here is US9249125B2, “Pyrazole derivatives as p38 MAP inhibitors” (RESPIVERT LIMITED, priority 2012, dated 2016).

One series concerns PBMC cells. Briefly: Cell mitosis assay. Format: cell-based, human. As to the method: Peripheral blood mononucleocytes (PBMCs) from healthy subjects are separated from whole blood (Quintiles, London, UK) using a density gradient (Histopaque-1077, Sigma-Aldrich, Poole, UK). The PBMCs (3 million cells per sample) are subsequently treated with 2% PHA (Sigma-Aldrich, Poole, UK) for 48 hr, followed by a 20 hr exposure to varying concentrations of test compounds. At 2 hr before collection, PBMCs are treated with demecolcine (0.1 μg/mL) (Invitrogen, Paisley, UK,) to arrest cells in metaphase. To observe mitotic cells, PBMCs are permeabilised and fixed by adding Intraprep (50 μL) (Beckman Coulter, France), and stained with anti-phospho-histone 3 (0.26 ng/L) (#9701; Cell Signalling, Danvers, Mass.) and propidium iodide (1 mg/mL) (Sigma-Aldrich, Poole, UK,) as previously described (Muehlbauer P. A. and Schuler M. J., Mutation Research, 2003, 537:117-130). Fluorescence is observed using an ATTUNE flow cytometer (Invitrogen, Paisley, UK), gating for lymphocytes.

In series [1] the test system is LPS-induced TNFα release in d-U937 cells. Briefly: LPS-induced TNFα release in d-U937 cells. As to conditions: Homo sapiens, dU937, relative to 10 μg/mL BIRB796, read-out: LPS Induced Release of Cytokine in d-937 Cells TNFα REC50. Format: cell-based. In outline: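 First, U937 monocytes undergo PMA treatment (100 ng/mL) for 48 to 72 hr to become macrophage-type. Next, compound at final concentrations is added for 2 hr, followed by LPS at 0.1 μg/mL for 4 hr. Finally, cytokines in the supernatant are quantified by ELISA against vehicle-treated cells.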

The next series relates to d-U937 cells. Briefly: Cell viability: MTT assay. Format: cell-based, human. To be noted: 1 μg/mL. Put shortly: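 Differentiated U937 cells were exposed to compound at 1 or 10 μg/mL either 4 h in 5% FCS RPMI1640 or 24 h in 10% FCS RPMI1640, then given MTT for 1 h, DMSO-solubilised and read at 550 nm. Percent viability loss versus 0.5% DMSO vehicle; apparent gains appear negative.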

The next series deals with p38 MAPKα (Homo sapiens (Human), UniProt Q16539). Briefly: p38 MAPKα enzyme inhibition (FRET, Z-LYTE). Format: biochemical.
Sequence of p38 MAPKα (Q16539 whole entry): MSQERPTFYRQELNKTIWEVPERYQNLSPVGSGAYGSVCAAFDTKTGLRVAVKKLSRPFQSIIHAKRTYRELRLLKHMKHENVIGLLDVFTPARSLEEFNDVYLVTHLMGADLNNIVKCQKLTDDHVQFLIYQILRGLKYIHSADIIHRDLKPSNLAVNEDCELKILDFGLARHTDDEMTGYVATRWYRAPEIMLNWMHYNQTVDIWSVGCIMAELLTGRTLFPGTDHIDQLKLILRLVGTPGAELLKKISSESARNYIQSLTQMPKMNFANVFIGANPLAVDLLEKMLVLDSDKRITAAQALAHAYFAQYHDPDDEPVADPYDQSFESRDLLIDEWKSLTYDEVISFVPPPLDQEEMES
In another series the target is cSrc (Homo sapiens (Human), UniProt P12931). Briefly: c-Src enzyme inhibition (FRET, Z-LYTE). The format is biochemical. In outline: (§1)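 Z-LYTE FRET kinase assay: enzyme (3000 or 2000 ng/mL stock, respectively) preincubated 2 h at RT with compound (4–0.004 μg/mL stocks), then FRET peptide plus ATP (800 μM stock for c-Src, 60 μM for Syk) added for 1 h. Protease development 1 h; phosphorylation from coumarin/fluorescein emission ratio.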
Sequence of cSrc (P12931 whole entry, looked up): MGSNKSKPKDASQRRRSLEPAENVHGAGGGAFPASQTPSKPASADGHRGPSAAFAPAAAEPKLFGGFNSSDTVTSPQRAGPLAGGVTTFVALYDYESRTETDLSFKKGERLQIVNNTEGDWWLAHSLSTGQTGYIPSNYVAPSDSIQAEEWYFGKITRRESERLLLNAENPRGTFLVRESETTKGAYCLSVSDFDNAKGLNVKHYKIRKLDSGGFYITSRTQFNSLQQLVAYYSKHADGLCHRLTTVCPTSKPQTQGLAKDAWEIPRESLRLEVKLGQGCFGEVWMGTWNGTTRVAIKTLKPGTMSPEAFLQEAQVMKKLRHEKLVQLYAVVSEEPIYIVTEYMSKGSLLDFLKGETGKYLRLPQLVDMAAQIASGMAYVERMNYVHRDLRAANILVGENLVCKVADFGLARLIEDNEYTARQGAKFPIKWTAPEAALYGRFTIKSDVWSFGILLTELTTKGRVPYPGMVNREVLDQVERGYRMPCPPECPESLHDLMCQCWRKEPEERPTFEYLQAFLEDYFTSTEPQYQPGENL

A further series deals with Syk (Homo sapiens (Human), UniProt P43405). Briefly: Syk enzyme inhibition (FRET, Z-LYTE). The format is biochemical. In outline:
as §1

In series [2] the test system is Poly I:C-induced ICAM-1 expression in BEAS2B cells. The experiment in a line: Poly I:C-induced ICAM-1 expression in BEAS2B cells. Format: cell-based. To be noted: Homo sapiens, BEAS-2B, read-out: Poly IC induced ICAM1 in BEAS2B IC50. In outline:
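BEAS2B human bronchial epithelial cells pre-incubated with compound for 2 hr, then transfected with 1 μg/mL poly I:C plus Oligofectamine. At 18 hr, surface ICAM-1 measured by cell-based ELISA (HRP, OD450–655). Signal corrected for cell number by crystal violet OD595.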

For series [3], the system named is LPS-induced IL-8 release in d-U937 cells. Briefly: LPS-induced IL-8 release in d-U937 cells. Format: cell-based. To be noted: Homo sapiens, dU937, read-out: LPS Induced Release of Cytokine in d-937 Cells IL-8 IC50. Put shortly:
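PMA (100 ng/mL, 48–72 hr)-differentiated U937; cpd 2 hr pre-inc; LPS 0.1 μg/mL (E. coli O111:B4) 4 hr. Supernatant TNFα/IL-8 by sandwich ELISA. IL-8 inhibition per concentration vs vehicle; REC50 from curve fit.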

Another series concerns the target GSK3α (Homo sapiens (Human), UniProt P49840). The experiment in a line: GSK 3α enzyme inhibition (FRET, Z-LYTE). Format: biochemical. In outline:
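GSK3α (500 ng/mL stock) was preincubated 2 hr at RT with compound (4 to 0.004 μg/mL stocks), then FRET peptide (8 μM stock) and ATP (40 μM stock) added for 1 hr. Protease development for 1 hr cleaved unphosphorylated peptide; coumarin/fluorescein emission ratio reported phosphorylation.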

The test system of another series is HRV16. The experiment in a line: HRV16 induced CPE in MRC5 cells. The format is cell-based, human rhinovirus. As to the method:
The supernatants are aspirated, and then fresh media added followed by incubation for 4 days. Where appropriate, cells are pre-incubated with compound or DMSO for 2 hr, and the compounds and DMSO added again after washout of the virus.
Supernatants are aspirated and incubated with methylene blue solution (100 μL, 2% formaldehyde, 10% methanol and 0.175% Methylene Blue) for 2 hr at RT. […] The percentage inhibition for each well is calculated. The IC50 value is calculated from the concentration-response curve generated by the serial dilutions of the test compounds.

SMILES strings stand for the structures. Where only a bound is given, the exact number is not on record here.

Sequence of GSK3α (P49840 whole entry): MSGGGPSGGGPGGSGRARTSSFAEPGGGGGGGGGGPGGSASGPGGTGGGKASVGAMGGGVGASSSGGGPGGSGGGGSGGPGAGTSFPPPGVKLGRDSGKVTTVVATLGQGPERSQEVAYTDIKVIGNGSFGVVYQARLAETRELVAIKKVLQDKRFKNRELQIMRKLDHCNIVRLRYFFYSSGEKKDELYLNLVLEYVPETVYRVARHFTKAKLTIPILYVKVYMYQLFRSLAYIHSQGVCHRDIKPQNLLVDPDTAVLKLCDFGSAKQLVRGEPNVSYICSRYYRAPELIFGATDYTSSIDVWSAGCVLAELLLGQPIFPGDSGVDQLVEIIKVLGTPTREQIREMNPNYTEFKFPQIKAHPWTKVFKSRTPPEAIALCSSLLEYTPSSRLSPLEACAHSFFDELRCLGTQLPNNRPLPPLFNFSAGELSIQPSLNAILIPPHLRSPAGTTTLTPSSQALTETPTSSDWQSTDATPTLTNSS

Consider `CC(C)(C)c1cc(NC(=O)Nc2ccc(Oc3cc(Nc4ccc5[nH]ncc5c4)ncn3)c3ccccc23)n(-c2ccc(OCCN3CCOCC3)cc2)n1` [Example 70, 1-(4-((6-((1H-indazol-5-yl)amino)pyrimidin-4-yl)oxy)naphthalen-1-yl)-3-(3-(tert-butyl)-1-(4-(2-morpholinoethoxy)phenyl)-1H-pyrazol-5-yl)urea], for which, in the series on PBMC cells, the “Mitosis Assay % inhibition in PBMC cells at 5 μg/mL” value (“Mitosis Assay % inhibition” below) turned out to be 62.4%. Besides, the EC50 in [1] was 2.5 nM. In the series with d-U937 cells, the “MTT Assay Cell viability at time point in d-U937 cells 4 h” value was “−ve (−ve and +ve indicate that the value is below and above respectively, the no significant effect threshold, defined as 30% inhibition at 1 μg/mL at the time point indicated.)”. Further, the “MTT Assay Cell viability at time point in d-U937 cells 24 h” value in the series with d-U937 cells was “−ve (−ve and +ve indicate that the value is below and above respectively, the no significant effect threshold, defined as 30% inhibition at 1 μg/mL at the time point indicated.)”. The IC50 against p38 MAPKα was 33 nM; against cSrc, 13 nM; on Syk, 14 nM; in series [2], 4.1 nM; in [3], 2.7 nM; against GSK3α, 3250 nM.
With `Cc1ccc(-n2nc(C(C)(C)C)cc2NC(=O)Nc2ccc(Oc3ccnc(Nc4ccc5[nH]nnc5c4)n3)c3ccccc23)cc1` [Example 36, 1-(4-((2-((1H-benzo[d][1,2,3]triazol-5-yl)amino)pyrimidin-4-yl)oxy)naphthalen-1-yl)-3-(3-(tert-butyl)-1-(p-tolyl)-1H-pyrazol-5-yl)urea], the “Mitosis Assay % inhibition” value in the series with PBMC cells is recorded as 41.2%. In series [1], the EC50 was 17.2 nM. In addition, in the series with d-U937 cells, the “MTT Assay Cell viability at time point in d-U937 cells 4 h” value is “−ve (−ve and +ve indicate that the value is below and above respectively, the no significant effect threshold, defined as 30% inhibition at 1 μg/mL at the time point indicated.)”. The “MTT Assay Cell viability at time point in d-U937 cells 24 h” value in the series on d-U937 cells is “−ve (−ve and +ve indicate that the value is below and above respectively, the no significant effect threshold, defined as 30% inhibition at 1 μg/mL at the time point indicated.)”. Besides, the concentration for half-maximal inhibition (IC50) against p38 MAPKα was 92 nM; against cSrc, 14 nM; against Syk it was 75 nM; in [2], 6.3 nM; in series [3], 2.3 nM; against GSK3α it was 2100 nM.
Turning to `CC(C)(C)c1cc(NC(=O)Nc2ccc(Oc3ccnc(Nc4ccc5c(c4)NC(=O)C5)n3)c3ccccc23)n(-c2ccc(OCCN3CCOCC3)nc2)n1` [Example 90, 1-(3-(tert-butyl)-1-(6-(2-morpholinoethoxy)pyridin-3-yl)-1H-pyrazol-5-yl)-3-(4-((2-((2-oxoindolin-6-yl)amino)pyrimidin-4-yl)oxy)naphthalen-1-yl)urea], the “Mitosis Assay % inhibition” value with PBMC cells is reported as 15.4%. The EC50 in [1] stood at 1.6 nM. Besides, the “MTT Assay Cell viability at time point in d-U937 cells 4 h” value with d-U937 cells is “−ve (−ve and +ve indicate that the value is below and above respectively, the no significant effect threshold, defined as 30% inhibition at 1 μg/mL at the time point indicated.)”. The “MTT Assay Cell viability at time point in d-U937 cells 24 h” value with d-U937 cells was “−ve (−ve and +ve indicate that the value is below and above respectively, the no significant effect threshold, defined as 30% inhibition at 1 μg/mL at the time point indicated.)”. Also, the IC50 against p38 MAPKα is 44 nM; at cSrc, under 1 nM; on Syk, under 1 nM; in series [2], 14.6 nM; in [3], 4.1 nM; against GSK3α it was 267 nM.
With `COc1ccc(-n2nc(C(C)C)cc2NC(=O)Nc2ccc(Oc3ccnc(Nc4cc(C)c5[nH]ncc5c4)n3)c3ccccc23)cc1` [Example 9, 1-(3-Isopropyl-1-(4-methoxyphenyl)-1H-pyrazol-5-yl)-3-(4-((2-((7-methyl-1H-indazol-5-yl)amino)pyrimidin-4-yl)oxy)naphthalen-1-yl)urea], the “Mitosis Assay % inhibition” value with PBMC cells amounted to 23.7%. In addition, the EC50 in series [1] is 1.6 nM. The “MTT Assay Cell viability at time point in d-U937 cells 4 h” value in the series on d-U937 cells was “−ve (−ve and +ve indicate that the value is below and above respectively, the no significant effect threshold, defined as 30% inhibition at 1 μg/mL at the time point indicated.)”. Further, the “MTT Assay Cell viability at time point in d-U937 cells 24 h” value with d-U937 cells is “−ve (−ve and +ve indicate that the value is below and above respectively, the no significant effect threshold, defined as 30% inhibition at 1 μg/mL at the time point indicated.)”. In addition, the concentration for half-maximal inhibition (IC50) on p38 MAPKα is 38 nM; against cSrc it was 4 nM; against Syk, 7 nM; in series [2], 1.2 nM; in [3], 3.9 nM; against GSK3α, over 15600 nM.
For `Cc1ccc(-n2nc(C(C)(C)C)cc2NC(=O)Nc2ccc(Oc3ccnc(Nc4ccc5c(c4)NC(=O)C5)n3)c3ccccc23)cc1` [Example 2, 1-(3-(tert-Butyl)-1-(p-tolyl)-1H-pyrazol-5-yl)-3-(4-((2-((2-oxoindolin-6-yl)amino)pyrimidin-4-yl)oxy)naphthalen-1-yl)urea], the “HRV induced CPE in MRC5 Cells % Inhibition Observed” value in the series with HRV16 (MRC5 cells, screened at concentrations up to 0.32 ng/mL) came out at 89%. Also, in series [1], the EC50 was 1.4 nM. The “MTT Assay Cell viability at time point in d-U937 cells 4 h” value with d-U937 cells is “−ve (−ve and +ve indicate that the value is below and above respectively, the no significant effect threshold, defined as 30% inhibition at 1 μg/mL at the time point indicated.)”. In the series with d-U937 cells, the “MTT Assay Cell viability at time point in d-U937 cells 24 h” value was “−ve (−ve and +ve indicate that the value is below and above respectively, the no significant effect threshold, defined as 30% inhibition at 1 μg/mL at the time point indicated.)”. The half-inhibitory concentration (IC50) at p38 MAPKα was 93 nM; at cSrc, 4 nM; on Syk, 18 nM; in series [2], 1.4 nM; in series [3] it was 1.7 nM; on GSK3α it was over 15600 nM.
For `CC(C)(C)c1cc(NC(=O)Nc2ccc(Oc3ccnc(Nc4ccc5[nH]ncc5c4)n3)c3ccccc23)n(-c2cccc(OCCN3CCOCC3)c2)n1` [Example 54, 1-(4-((2-((1H-indazol-5-yl)amino)pyrimidin-4-yl)oxy)naphthalen-1-yl)-3-(3-(tert-butyl)-1-(3-(2-morpholinoethoxy)phenyl)-1H-pyrazol-5-yl)urea], the concentration for half-maximal inhibition (IC50) in the series with HRV16 (Human rhinovirus sp., HRV16, MRC5, read-out: HRV induced CPE in MRC5 Cells IC50) was 0.4 nM; against p38 MAPKα, 11 nM; against cSrc, 7 nM; at Syk, 9 nM; in [2] it was 10.3 nM; in series [3] it was 24.8 nM. This molecule gave an IC50 against GSK3α of 1980 nM. Further, the EC50 in series [1] was 8.7 nM. The “MTT Assay Cell viability at time point in d-U937 cells 4 h” value with d-U937 cells is “−ve (−ve and +ve indicate that the value is below and above respectively, the no significant effect threshold, defined as 30% inhibition at 1 μg/mL at the time point indicated.)”. Moreover, the “MTT Assay Cell viability at time point in d-U937 cells 24 h” value in the series with d-U937 cells was “−ve (−ve and +ve indicate that the value is below and above respectively, the no significant effect threshold, defined as 30% inhibition at 1 μg/mL at the time point indicated.)”.
